Among the test systems are ACHN; HCC 2998; HCT-116; HL-60; HOP-62; HT-29; KM12; LOX IMVI; M14; MCF7; Malme-3M; NCI-H460; OVCAR-3; RXF 393; SK-MEL-28; SN12C; SNB-75; UACC-62; OVCAR-8; SF-295.
Holding throughout (experiment): NCI anticancer screen, dose series, 48 h

The structures appear in SMILES notation.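 How tested: cells in 96-well plates exposed to compound for 48 hours at five concentrations. At the GI50, growth is halved.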 Calls of active or inactive are those of the source. Rule as the data show it: active = GI50 up to about 1.1 µM and inactive = higher. Where a SMILES comes first, the peptide text is derived from it. The star is where a group is joined. Cbz = O=C(OCc1ccccc1)*; Bn = c1ccc(C*)cc1 A value given as a limit tells only on which side of the number the result lay.

For `CCCCOC(=O)NC(Nc1ccc(S(N)(=O)=O)cc1)(C(F)(F)F)C(F)(F)F`, the GI50 in the assay with ACHN, in the assay on HCC 2998, in the assay with HCT-116, with HL-60, in the assay with HOP-62 and with HT-29 was > 100 µM (inactive) throughout. The GI50 in the assay with KM12, with LOX IMVI, in the assay on M14, in the assay on MCF7, in the assay with Malme-3M and in the assay with NCI-H460 was > 100 µM (inactive) throughout. In addition, the GI50 in the assay on OVCAR-3, with RXF 393, in the assay on SK-MEL-28, in the assay on SN12C, with SNB-75 and in the assay with UACC-62 was > 100 µM (inactive) each time.

On to `COC(=O)C(Cc1ccc(O)cc1)NC(=O)C(COCc1ccccc1)NC(=O)OCc1ccccc1` (centres undefined) (Cbz-Ser(Bn)-Tyr-OMe; configuration not given here), for which the GI50 in the assay with ACHN was 17.4 µM (inactive); in the assay on HCC 2998, 4.06 µM (inactive); in the assay with HCT-116, 20.9 µM (inactive); with HL-60, > 100 µM (inactive); in the assay on HOP-62, 19 µM (inactive); with HT-29, 15.1 µM (inactive). For the same molecule, the GI50 with KM12 is 19.8 µM (inactive); in the assay with LOX IMVI it was 22.2 µM (inactive); with M14, 19.4 µM (inactive); in the assay with MCF7, 19.3 µM (inactive); with Malme-3M, 21.3 µM (inactive); in the assay with NCI-H460 it was 4.13 µM (inactive). For the same molecule, the GI50 in the assay with OVCAR-3 is 17.7 µM (inactive); with OVCAR-8 it was 17.8 µM (inactive); with RXF 393, 18.7 µM (inactive); in the assay on SF-295, 16.5 µM (inactive); with SK-MEL-28, 20.9 µM (inactive); with SN12C it was 18.4 µM (inactive). For the same molecule, the GI50 with SNB-75 is 14.9 µM (inactive); in the assay on UACC-62, 17 µM (inactive).

As for `COc1ccc2c(c1)CCC(CN1CCN(CCOC(c3ccccc3)c3ccccc3)CC1)C2O` (centres undefined), the GI50 in the assay on ACHN was 12.6 µM (inactive); in the assay on HCC 2998, 4.28 µM (inactive); with HCT-116, 12.2 µM (inactive); with HL-60, 2.81 µM (inactive); with HOP-62, 19 µM (inactive); with HT-29, 5.04 µM (inactive). The GI50 with KM12 is 18.3 µM (inactive); with LOX IMVI, 17.3 µM (inactive); in the assay with M14, 14.2 µM (inactive); in the assay on MCF7, 18.9 µM (inactive); with Malme-3M, 17.5 µM (inactive); with NCI-H460 it was 16.7 µM (inactive). For the same molecule, the GI50 was 15.3 µM (inactive) in the assay with OVCAR-3; 14.5 µM (inactive) with OVCAR-8; 14.1 µM (inactive) in the assay with RXF 393; 18.9 µM (inactive) in the assay with SF-295; 16.5 µM (inactive) in the assay on SK-MEL-28; 13.5 µM (inactive) in the assay on SN12C. For the same molecule, the GI50 was 17.9 µM (inactive) with SNB-75 and 13.5 µM (inactive) with UACC-62.

As for `COc1cc(OC)c2nc(C)c3c(c2c1)OCC3`, the GI50 in the assay with ACHN was > 100 µM (inactive); in the assay with HCC 2998, > 100 µM (inactive); in the assay with HCT-116, 80.7 µM (inactive); with HL-60 it was > 100 µM (inactive); in the assay on HOP-62, 37.7 µM (inactive); in the assay on HT-29, > 100 µM (inactive). Also, the GI50 in the assay on KM12, in the assay on LOX IMVI, in the assay with M14, in the assay with MCF7, in the assay with Malme-3M and in the assay with NCI-H460 was > 100 µM (inactive) throughout. Further, the GI50 in the assay on OVCAR-3 was > 100 µM (inactive); in the assay on OVCAR-8 it was > 100 µM (inactive); with RXF 393, 22.6 µM (inactive); with SF-295 it was 34 µM (inactive); in the assay with SK-MEL-28, > 100 µM (inactive); with SN12C, 89.3 µM (inactive). Besides, the values for the GI50 in the assay on SNB-75 and in the assay on UACC-62 were 61.2 µM (inactive) and 44.8 µM (inactive), respectively.

As to `C/C=C/c1cc2c(c(=O)o1)C(=O)[C@@H](O)[C@H](C)O2`, the GI50 with HCC 2998 was 10.3 µM (inactive); in the assay on HCT-116, 7.8 µM (inactive); in the assay on HL-60 it was 4.32 µM (inactive); with HOP-62 it was 26.5 µM (inactive); in the assay on HT-29 it was 14.4 µM (inactive); with KM12, 14.4 µM (inactive). Besides, the GI50 in the assay on LOX IMVI was 12.6 µM (inactive); in the assay on MCF7 it was 4.08 µM (inactive); in the assay on Malme-3M, 17.3 µM (inactive); in the assay with NCI-H460, 21.7 µM (inactive); in the assay on OVCAR-3, 17.7 µM (inactive); in the assay with OVCAR-8, 16.7 µM (inactive). The GI50 is 12.3 µM (inactive) with RXF 393; 21 µM (inactive) in the assay on SF-295; 15 µM (inactive) in the assay with SK-MEL-28; 15.4 µM (inactive) in the assay with SN12C; 18.7 µM (inactive) with SNB-75; 17.5 µM (inactive) with UACC-62.

Take `C=CC[N+](CCO)(CCO)CCCCCCCCCCCCCCCCCC`: the GI50 in the assay on HCC 2998 was 3.23 µM (inactive); in the assay with HCT-116 it was 3.4 µM (inactive); with HL-60, 0.714 µM (active); in the assay with HOP-62 it was 6.38 µM (inactive); in the assay on HT-29, 3.08 µM (inactive); in the assay with KM12 it was 1.99 µM (inactive). The GI50 in the assay on LOX IMVI is 2.75 µM (inactive); in the assay with MCF7, 7.1 µM (inactive); in the assay with Malme-3M, 14.8 µM (inactive); in the assay on NCI-H460, 4.05 µM (inactive); in the assay with OVCAR-3, 5.11 µM (inactive); in the assay with OVCAR-8, 9.25 µM (inactive). Moreover, the GI50 was 2.19 µM (inactive) in the assay with RXF 393; 4.41 µM (inactive) with SF-295; 12.9 µM (inactive) in the assay on SK-MEL-28; 6.78 µM (inactive) in the assay on SN12C; 2.43 µM (inactive) in the assay on SNB-75; 4.58 µM (inactive) with UACC-62.

The values are drawn from ChEMBL document CHEMBL1201862, “PubChem BioAssay data set” (2004).
